The subject of one assay is NCI-H1975. Kind of assay: CCK-8 tumor cell proliferation, NCI-H1975. In kind it is cell-based, Human. Conditions: Table 7, designed based on BTK inhibitors; 96 h. Put shortly:
(§1)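 Using the CCK-8 kit, viability of plated cells is assessed after exposure to compound across ten concentrations (5-fold serial dilution, top 10 μM) added at 24 h. IC50 is obtained by curve fitting of growth inhibition.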

Another assay deals with MM.1S. The assay can be described thus: CCK-8 tumor cell proliferation, MM.1S. In kind it is cell-based. Conditions: for IC50: Homo sapiens, MM1.S. In short, it runs like this: as §1
For another assay, the system named is MDA-MB-231. Kind of assay: CCK-8 tumor cell proliferation, MDA-MB-231. In kind it is cell-based, Human. The conditions noted are these: Table 7, designed based on BTK inhibitors, 96 h. Set-up: IC50 for inhibiting the proliferation of tumor cells, MDA-MB-231: scale not given here. In short, it runs like this: as §1
A further assay deals with Vcap. Kind of assay: CCK-8 tumor cell proliferation, Vcap. In kind it is cell-based, Human. Conditions: for IC50: Homo sapiens, VCaP. As to the method:
(§2) The tumor cells used herein were cultured in a cell culture medium listed in table 4 at 37° C. in an incubator with 5% CO2. Prior to experimentation, all cells used were correctly identified by STR profiling, and tested negative for mycoplasma through routine screenings.
(§3) IC50 values of the compounds of the present disclosure (including the compounds in Tables 1 and 3, and compounds of examples) were measured using the Meilun Cell Counting Kit-8 kit from Dalian Meilun Biotech Co., Ltd. Assay details are as follows: tumor cells were seeded in a 96-well plate at a density listed in Table 5. After 24 h, 100 μL of the inoculated cells were treated with 0.5 μL of the compounds of the present disclosure (including the compounds in Tables 1 and 3, and compounds of examples) at 10 different successively decreasing concentrations (starting at the highest concentration of 10 μM; 5-fold serial dilutions). After the cells were treated with the compounds of the present disclosure for a period of time, the cell viability detection reagent was added to the culture medium for cell viability assessment according to the instructions provided with the CCK-8 kit. […] The growth inhibition of the compounds of the present disclosure on cells was plotted by Prism Graphpad software, and the IC50 values of the compounds of the present disclosure were calculated therefrom.

The subject of a further assay is CCRF-CEM. The assay can be described thus: CCK-8 tumor cell proliferation, CCRF-CEM. In kind it is cell-based, Human. Set-up: IC50 for inhibiting the proliferation of tumor cells, CCRF-CEM: scale not given here. Conditions: for IC50: Homo sapiens, CCRF-CEM. Put shortly: as §1
The next assay deals with Kasumi-1. The assay can be described thus: CCK-8 tumor cell proliferation, Kasumi-1. In kind it is cell-based, Human. Conditions: Table 7, designed based on BTK inhibitors; 72 h. In short, it runs like this: as §1
In the next assay the test system is THP-1. Kind of assay: CCK-8 tumor cell proliferation, THP-1. In kind it is cell-based, Human. The conditions noted are these: 72 h. As to the method: as §2, §3
The subject of another assay is 22RV1. The assay can be described thus: CCK-8 tumor cell proliferation, 22RV1. Set-up: species or system Human. Conditions: Table 7, designed based on BTK inhibitors, 96 h. As to the method:
as §2, §3

For another assay, the system named is MV-4-11. Kind of assay: CCK-8 tumor cell proliferation, MV-4-11. In kind it is cell-based, Human. The conditions noted are these: Table 7, designed based on BTK inhibitors; 72 h. In short, it runs like this:
as §1

The next assay deals with Mino. The assay can be described thus: CCK-8 tumor cell proliferation, Mino. The conditions noted are these: Table 7, designed based on BTK inhibitors; 72 h. In kind it is cell-based, Human. In short, it runs like this:
as §1

For the next assay, the system named is MGC-803. Kind of assay: CCK-8 tumor cell proliferation, MGC-803. The conditions noted are these: Homo sapiens, Table 18, FAK inhibitor based, MGC803, read-out: IC50 inhibiting proliferation of tumor cells, MGC803. As to the method:
as §2, §3

A further assay has as its system CAL-62. Kind of assay: CCK-8 tumor cell proliferation, CAL-62. In kind it is cell-based, Human. Conditions: Homo sapiens; Table 18, FAK inhibitor based; CAL-62; read-out: IC50 inhibiting proliferation of tumor cells, CAL-62. In short, it runs like this: as §1
A further assay concerns Hep3B2.7-1. The assay can be described thus: CCK-8 tumor cell proliferation, Hep3B2.7-1. In kind it is cell-based, Human. Conditions: Homo sapiens; Table 18, FAK inhibitor based; HEP3B2.7-1; read-out: IC50 inhibiting proliferation of tumor cells, HEP3B2.7-1. Put shortly: as §1
In the next assay the test system is SW620. Kind of assay: CCK-8 tumor cell proliferation, SW620. In kind it is cell-based, Human. The conditions noted are these: Homo sapiens, SW-620; Table 18, FAK inhibitor based; SW620; read-out: IC50 inhibiting proliferation of tumor cells, SW620. In short, it runs like this:
as §1

The mark [1] stands for this setting: Table 7, designed based on BTK inhibitors, 72 h.
Where [2] appears, read: Table 7, designed based on BTK inhibitors, 96 h.
[3] abbreviates: Table 18, FAK inhibitor based, Vcap, read-out: IC50 inhibiting proliferation of tumor cells, Vcap.
Setting [4] is: Table 11, designed based on EGFR inhibitors, 96 h.

Where two headings read alike, the source gives them in different places.

Take `Nc1ncnc2c1c(-c1ccc(Oc3ccccc3)cc1)nn2C1CCN(Cc2ccc3c(c2F)CN(C2CCC(=O)NC2=O)C3=O)CC1` (stereo not shown) [GT-03472, 3-(5-((4-(4-amino-3-(4-phenoxyphenyl)-1H-pyrazolo[3,4-d]pyrimidin-1-yl)piperidin-1-yl)methyl)-4-fluoro-1-oxoisoindolin-2-yl)piperidine-2,6-dione]: the “IC50 for inhibiting the proliferation of tumor cells, NCI-H1975” value in the assay with NCI-H1975 is “A+”. Further, the “IC50 for inhibiting the proliferation of tumor cells, MM.1S” value in the assay with MM.1S (setting [1]) is “A+”. Besides, in the assay with MDA-MB-231, the “IC50 for inhibiting the proliferation of tumor cells, MDA-MB-231” value is listed as “A+”. In the assay with Vcap (setting [2]), the “IC50 for inhibiting the proliferation of tumor cells, Vcap” value is recorded as “A+”. Further, the “IC50 for inhibiting the proliferation of tumor cells, CCRF-CEM” value in the assay with CCRF-CEM (setting [2]) is “A+”. In addition, in the assay on Kasumi-1, the “IC50 for inhibiting the proliferation of tumor cells, Kasumi-1” value was “A+”. Further, the “IC50 for inhibiting the proliferation of tumor cells, THP-1” value in the assay with THP-1 (Table 7, designed based on BTK inhibitors) is recorded as “A+”.

For `Nc1ncnc2c1c(-c1ccc(Oc3ccccc3)cc1)nn2C1CCN(Cc2ccc3c(c2)CN(C2CCC(=O)NC2=O)C3=O)CC1F` (stereo not shown) [GT-02652, 3-(5-((4-(4-amino-3-(4-phenoxyphenyl)-1H-pyrazolo[3,4-d]pyrimidin-1-yl)-3-fluoropiperidin-1-yl)methyl)-1-oxoisoindolin-2-yl)piperidine-2,6-dione], the “IC50 for inhibiting the proliferation of tumor cells, 22RV1” value in the assay on 22RV1 was “A+”. Moreover, the “IC50 for inhibiting the proliferation of tumor cells, MM.1S” value in the assay with MM.1S (setting [1]) is “A+”. Besides, the “IC50 for inhibiting the proliferation of tumor cells, MDA-MB-231” value with MDA-MB-231 was “A+”. Besides, in the assay with MV-4-11, the “IC50 for inhibiting the proliferation of tumor cells, MV-4-11” value is on record as “A+”. Further, in the assay on Mino, the “IC50 for inhibiting the proliferation of tumor cells, Mino” value is “A+”.

Turning to `CNC(=O)c1ccccc1Nc1cc(Nc2cc(C)c(N3CCC(N(C)Cc4ccc5c(c4)CN(C4CCC(=O)NC4=O)C5=O)CC3)cc2OC(C)C)ncc1C(F)(F)F` (stereo not shown) [GT-04090, 2-((2-((4-(4-(((2-(2,6-dioxopiperidin-3-yl)-1-oxoisoindolin-5-yl)methyl)(methyl)amino)piperidin-1-yl)-2-isopropoxy-5-methylphenyl)amino)-5-(trifluoromethyl)pyridin-4-yl)amino)-N-methylbenzamide], the figures for the IC50 with MGC-803 and in the assay on CAL-62 were less than 50 nM and 50 to 100 nM, respectively.

On to `CNC(=O)c1ccccc1Nc1cc(Nc2cc(C)c(C3CCN(Cc4cc5c(cc4F)C(=O)N(C4CCC(=O)NC4=O)C5)CC3)cc2OC(C)C)ncc1C(F)(F)F` (stereo not shown) [GT-04080, 2-((2-((4-(1-((2-(2,6-dioxopiperidin-3-yl)-6-fluoro-1-oxoisoindolin-5-yl)methyl)piperidin-4-yl)-2-isopropoxy-5-methylphenyl)amino)-5-(trifluoromethyl)pyridin-4-yl)amino)-N-methylbenzamide], for which the IC50 in the assay with MGC-803 was 50 to 100 nM; in the assay with MM.1S (Table 18, FAK inhibitor based, MM.1S, read-out: IC50 inhibiting proliferation of tumor cells, MM.1S), less than 50 nM; with Vcap (setting [3]), less than 50 nM; in the assay on CCRF-CEM (Table 18, FAK inhibitor based, read-out: IC50 inhibiting proliferation of tumor cells, CCRF-CEM), less than 50 nM; in the assay with CAL-62, less than 50 nM; with Hep3B2.7-1, less than 50 nM. Further, in the assay on SW620, the IC50 was less than 50 nM.

As to `CNC(=O)c1ccccc1Nc1cc(Nc2cc(C)c(N3CCC(N(C)Cc4cc5c(cc4F)C(=O)N(C4CCC(=O)NC4=O)C5)CC3)cc2OC(C)C)ncc1C(F)(F)F` (stereo not shown) [GT-04092, 2-((2-((4-(4-(((2-(2,6-dioxopiperidin-3-yl)-6-fluoro-1-oxoisoindolin-5-yl)methyl)(methyl)amino)piperidin-1-yl)-2-isopropoxy-5-methylphenyl)amino)-5-(trifluoromethyl)pyridin-4-yl)amino)-N-methylbenzamide], the IC50 in the assay on MGC-803 is less than 50 nM; in the assay with CAL-62, 100 to 500 nM.

For `CNC(=O)c1ccccc1Nc1cc(Nc2cc(C)c(N3CCC(N(C)Cc4cc(F)c5c(c4)CN(C4CCC(=O)NC4=O)C5=O)CC3)cc2OC(C)C)ncc1C(F)(F)F` (stereo not shown) [GT-04093, 2-((2-((4-(4-(((2-(2,6-dioxopiperidin-3-yl)-7-fluoro-1-oxoisoindolin-5-yl)methyl)(methyl)amino)piperidin-1-yl)-2-isopropoxy-5-methylphenyl)amino)-5-(trifluoromethyl)pyridin-4-yl)amino)-N-methylbenzamide], the results for the IC50 in the assay with MGC-803 and in the assay on CAL-62 were less than 50 nM and 50 to 100 nM, respectively.

For `CNC(=O)c1ccccc1Nc1cc(Nc2cc(C)c(N3CCN(Cc4cc5c(cc4F)C(=O)N(C4CCC(=O)NC4=O)C5)CC3)cc2OC(C)C)ncc1C(F)(F)F` (stereo not shown) [GT-03942, 2-((2-((4-(4-((2-(2,6-dioxopiperidin-3-yl)-6-fluoro-1-oxoisoindolin-5-yl)methyl)piperazin-1-yl)-2-isopropoxy-5-methylphenyl)amino)-5-(trifluoromethyl)pyridin-4-yl)amino)-N-methylbenzamide], the IC50 in the assay with MGC-803, with Vcap (setting [3]), with CAL-62 and with SW620 was less than 50 nM throughout.

Regarding `C=CC(=O)N1CCC[C@@H](n2nc(-c3ccc(Oc4ccccc4)cc3)c3c(N)ncnc32)C1` [ibrutinib, Ibrutinib, reference compound], the IC50 in the assay with 22RV1 (Homo sapiens, 22Rv1, read-out: IC50 for inhibiting the proliferation of tumor cells, 22RV1) is greater than 10000 nM; in the assay on MM.1S (Table 7, designed based on BTK inhibitors, 72 h, read-out: IC50 for inhibiting the proliferation of tumor cells, MM.1S), greater than 10000 nM; in the assay on MDA-MB-231 (Homo sapiens, MDA-MB-231, read-out: IC50 for inhibiting the proliferation of tumor cells, MDA-MB-231), greater than 10000 nM; in the assay with Vcap (96 h, Table 7, designed based on BTK inhibitors, 96 h, read-out: IC50 for inhibiting the proliferation of tumor cells, Vcap), greater than 10000 nM; in the assay with CCRF-CEM (Table 7, designed based on BTK inhibitors, 96 h, read-out: IC50 for inhibiting the proliferation of tumor cells, CCRF-CEM), greater than 10000 nM; in the assay with THP-1 (Homo sapiens, THP-1, Table 7, designed based on BTK inhibitors, read-out: IC50 for inhibiting the proliferation of tumor cells, THP-1), greater than 10000 nM.

`O=C1CCC(N2Cc3cc(CN4CCC(N5CCN(c6ccc(-c7cc(F)c8c(c7)C(=O)N(C(C(=O)Nc7nccs7)c7ncn9c7CCC9)C8)cc6)CC5)C(F)(F)C4)ccc3C2=O)C(=O)N1` (stereo not shown) [GT-04459, 2-(6,7-dihydro-5H-pyrrolo[1,2-c]imidazol-1-yl)-2-(6-(4-(4-(1-((2-(2,6-dioxopiperidin-3-yl)-1-oxoisoindolin-5-yl)methyl)-3,3-difluoropiperidin-4-yl)piperazin-1-yl)phenyl)-4-fluoro-1-oxoisoindolin-2-yl)-N-(thiazol-2-yl)acetamide]: in the assay on Vcap (setting [4]), the “IC50 for inhibiting the proliferation of tumor cells, Vcap” value is “A+”. Also, the “IC50 for inhibiting the proliferation of tumor cells, CCRF-CEM” value with CCRF-CEM (setting [4]) is reported as “A+”. Moreover, the “IC50 for inhibiting the proliferation of tumor cells, THP-1” value with THP-1 (Table 11, designed based on EGFR inhibitors) is “A+”.

Turning to `CNC(=O)c1ccccc1Nc1cc(Nc2cc(C)c(N3CCC(N(C)Cc4ccc5c(c4F)CN(C4CCC(=O)NC4=O)C5=O)CC3)cc2OC(C)C)ncc1C(F)(F)F` (stereo not shown) [GT-04091, 2-((2-((4-(4-(((2-(2,6-dioxopiperidin-3-yl)-4-fluoro-1-oxoisoindolin-5-yl)methyl)(methyl)amino)piperidin-1-yl)-2-isopropoxy-5-methylphenyl)amino)-5-(trifluoromethyl)pyridin-4-yl)amino)-N-methylbenzamide], the IC50 with MGC-803 was 50 to 100 nM; in the assay with CAL-62, less than 50 nM.

Values taken from patent US20260199323A1, “LIGAND COMPOUNDS FOR E3 UBIQUITIN LIGASE, PROTEIN DEGRADERS DEVELOPED ON BASIS OF LIGAND COMPOUNDS, AND USES THEREOF” (GLUETACS THERAPEUTICS (SHANGHAI) CO., LTD., priority 2021, published 2026).
